This note sets out measurements from patent publication US9370185B2, “Herbicidal composition” (ISHIHARA SANGYO KAISHA, LTD., priority 2011, dated 2016).

As a reminder, the inhibition is the relative decrease from the control value, in per cent.

Each structure is given as a SMILES string.

Common to all, as to format: in vivo
Test [1] has as its system black nightshade (Solanum nigrum L.). The test can be described thus: Test Example 1: foliar treatment of black nightshade, visual growth inhibition. As to conditions: foliar treatment at 2.3 to 2.5 leaf stage, 21st day after treatment, read-out: Growth Inhibition Rate of Black nightshade (%) Measured Value. The method, then:
Upland field soil was put into a 1/1,000,000-ha pot, and seeds of black nightshade (Solanum nigrum L.) were sown. When the black nightshade reached the 2.3 to 2.5 leaf stage, prescribed amounts of a water dispersible granules containing flazasulfuron as an active ingredient (trade name: SHIBAGEN DF, manufactured by Ishihara Sangyo Kaisha, Ltd.) and a wettable powder containing pyroxasulfone as an active ingredient were diluted with water (corresponding to 1,000 L/ha) containing 0.05% by volume of an agricultural adjuvant (trade name: KUSARINOH, manufactured by NIHON NOHYAKU Co., Ltd.) and applied for foliar treatment by a small sprayer.
On the 21st day after the treatment, the state of growth of the black nightshade was visually observed and examined, followed by evaluation according to the following evaluation criteria. A growth inhibition rate (%) (measured value) and a growth inhibition rate (%) (calculated value) as calculated according to the foregoing Colby's method are shown in Table 1.
(§1) Growth inhibition rate (%)=weed control rate of from 0% (equivalent to the non-treated plot) to 100% (complete kill)

For test [2], the system named is velvetleaf (Abutilon theophrasti Medic.). As to the kind of experiment: Test Example 3: soil treatment, velvetleaf, visual growth inhibition. As to conditions: 24 h, soil treatment one day after sowing, 21st day after treatment, read-out: Growth Inhibition Rate of Velvetleaf (%) Measured Value. The method, then: as §1
Upland field soil was put into a 1/1,000,000-ha pot, and seeds of velvetleaf (Abutilon theophrasti Medic.) were sown. After one day, prescribed amounts of SHIBAGEN DF (trade name) and a wettable powder containing pyroxasulfone as an active ingredient were diluted with water (corresponding to 1,000 L/ha) and applied for soil treatment by a small sprayer.
On the 21st day after the treatment, the state of growth of the velvetleaf was visually observed and examined.

The subject of test [3] is common lambsquarters (Chenopodium album L.). As to the kind of experiment: Test Example 4: soil treatment, common lambsquarters, visual growth inhibition. Particulars: 24 h, soil treatment one day after sowing, 27th day after treatment, read-out: Growth Inhibition Rate of Common lambsquarters (%) Measured Value. The protocol:
as §1
Upland field soil was put into a 1/1,000,000-ha pot, and seeds of common lambsquarters (Chenopodium album L.) were sown. After one day, prescribed amounts of a water-based suspension containing nicosulfuron as an active ingredient and a wettable powder containing pyroxasulfone as an active ingredient were diluted with water (corresponding to 300 L/ha) and applied for soil treatment by a small sprayer.
On the 27th day after the treatment, the state of growth of the common lambsquarters was visually observed and examined.

Test [4] relates to crabgrass (Digitaria sanguinalis (L.) Scop.). As to the kind of experiment: Test Example 2: foliar treatment of crabgrass, visual growth inhibition. Particulars: foliar treatment at 4.0 to 4.5 leaf stage, 21st day after treatment, read-out: Growth Inhibition Rate of Crabgrass (%) Measured Value. The method, then:
as §1
Upland field soil was put into a 1/1,000,000-ha pot, and seeds of crabgrass (Digitaria sanguinalis (L.) Scop.) were sown. When the crabgrass reached the 4.0 to 4.5 leaf stage, prescribed amounts of SHIBAGEN DF (trade name) and a wettable powder containing pyroxasulfone as an active ingredient were diluted with water (corresponding to 1,000 L/ha) containing 0.05% by volume of KUSARINOH (trade name) and applied for foliar treatment by a small sprayer.
On the 21st day after the treatment, the state of growth of the crabgrass was visually observed and examined.

For test [5], the system named is black nightshade (Solanum nigrum L.). As to the kind of experiment: Test Example 5: soil treatment, black nightshade, visual growth inhibition. Particulars: 24 h, soil treatment one day after sowing, 14th day after treatment, read-out: Growth Inhibition Rate of Black nightshade (%) Measured Value. The method, then:
as §1
Upland field soil was put into a 1/300,000-ha pot, and seeds of black nightshade (Solanum nigrum L.) were sown. After one day, prescribed amounts of SHIBAGEN DF (trade name) and a wettable powder containing pyroxasulfone as an active ingredient were diluted with water (corresponding to 1,000 L/ha) and applied for soil treatment by a small sprayer.
On the 14th day after the treatment, the state of growth of the black nightshade was visually observed and examined.

The test system of test [6] is wild oat (Avena fatua L.). As to the kind of experiment: Test Example 6: soil treatment, wild oat, visual growth inhibition. Particulars: 24 h, soil treatment one day after sowing, 28th day after treatment, read-out: Growth Inhibition Rate of Wild oat (%) Measured Value. The protocol: as §1
Upland field soil was put into a 1/300,000-ha pot, and seeds of wild oat (Avena fatua L.) were sown. After one day, prescribed amounts of SHIBAGEN DF (trade name) and a wettable powder containing pyroxasulfone as an active ingredient were diluted with water (corresponding to 1,000 L/ha) and applied for soil treatment by a small sprayer.
On the 28th day after the treatment, the state of growth of the wild oat was visually observed and examined.

Test [7] deals with velvetleaf (Abutilon theophrasti Medic.). The test can be described thus: Test Example 7: soil treatment, velvetleaf, visual growth inhibition. Particulars: 24 h, soil treatment one day after sowing, 28th day after treatment, read-out: Growth Inhibition Rate of Velvetleaf (%) Measured Value. The method, then:
as §1
Upland field soil was put into a 1/300,000-ha pot, and seeds of velvetleaf (Abutilon theophrasti Medic.) were sown. After one day, prescribed amounts of an oil-based suspension (trade name: ONEHOPE NYUZAI, manufactured by Ishihara Sangyo Kaisha, Ltd.) containing nicosulfuron as an active ingredient and a wettable powder containing pyroxasulfone as an active ingredient were diluted with water (corresponding to 1,000 L/ha) and applied for soil treatment by a small sprayer.
On the 28th day after the treatment, the state of growth of the velvetleaf was visually observed and examined.

As to `Cn1nc(C(F)(F)F)c(CS(=O)(=O)C2=NOC(C)(C)C2)c1OC(F)F` [pyroxasulfone, 3-[5-(difluoromethoxy)-1-methyl-3-(trifluoromethyl)pyrazol-4-ylmethylsulfonyl]-4,5-dihydro-5,5-dimethyl-1,2-oxazole], the values for the inhibition at 25 g/ha in test [1] (dose 25 g/ha) and in test [4] (dose 25 g/ha) were 20% and 0%, respectively. The inhibition at 12.5 g/ha amounted to 13% in test [2] (dose 12.5 g/ha) and 0% in test [6] (dose 12.5 g/ha). Besides, the inhibition at 125 g/ha in test [3] (dose 125 g/ha) is 90%. Further, the inhibition at 200 g/ha in test [4] (dose 200 g/ha) was 40%. Also, the inhibition at 50 g/ha in test [5] came out at 20%; in test [7] (dose 50 g/ha), 40%. Besides, the inhibition at 150 g/ha in test [5] (dose 150 g/ha) turned out to be 30%. The figures for the inhibition at 300 g/ha in test [5] (dose 300 g/ha) and in test [7] (dose 300 g/ha) were 30% and 80%, respectively. Also, the inhibition at 100 g/ha in test [7] was found to be 70%.

Consider `COc1cc(OC)nc(NC(=O)NS(=O)(=O)c2ncccc2C(=O)N(C)C)n1` [nicosulfuron, 2-(4,6-dimethoxypyrimidin-2-ylcarbamoylsulfamoyl)-N,N-dimethylnicotinamide], for which the inhibition at 30 g/ha in test [3] (dose 30 g/ha) was 35%. The inhibition at 20 g/ha in test [7] (dose 20 g/ha) is 0%. In addition, the inhibition at 100 g/ha in test [7] was determined as 10%.

As to `COc1cc(OC)nc(NC(=O)NS(=O)(=O)c2ncccc2C(F)(F)F)n1` [flazasulfuron, 1-(4,6-dimethoxypyrimidin-2-yl)-3-(3-trilfuoromethyl-2-pyridylsulfony)urea], the inhibition at 12.5 g/ha in test [1] (dose 12.5 g/ha) turned out to be 33%. Also, the inhibition at 50 g/ha came to 94% in test [2] (dose 50 g/ha), 70% in test [4] (dose 50 g/ha) and 60% in test [5]. In addition, in test [5] (dose 25 g/ha), the inhibition at 25 g/ha was determined as 50%. For the same compound, the inhibition at 100 g/ha came out at 80% in test [5] (dose 100 g/ha) and 85% in test [6] (dose 100 g/ha).
